Our source for the IC50 values is patent US11584763B2, “Chromenopyridine derivatives as phosphatidylinositol phosphate kinase inhibitors” (HIBERCELL, INC., priority 2017, dated 2023).

One assay addresses T1, PIP4K2B (Homo sapiens, UniProt P78356).
T1 construct: made in house; host or cells: E. coli
T1 sequence (P78356 1-416): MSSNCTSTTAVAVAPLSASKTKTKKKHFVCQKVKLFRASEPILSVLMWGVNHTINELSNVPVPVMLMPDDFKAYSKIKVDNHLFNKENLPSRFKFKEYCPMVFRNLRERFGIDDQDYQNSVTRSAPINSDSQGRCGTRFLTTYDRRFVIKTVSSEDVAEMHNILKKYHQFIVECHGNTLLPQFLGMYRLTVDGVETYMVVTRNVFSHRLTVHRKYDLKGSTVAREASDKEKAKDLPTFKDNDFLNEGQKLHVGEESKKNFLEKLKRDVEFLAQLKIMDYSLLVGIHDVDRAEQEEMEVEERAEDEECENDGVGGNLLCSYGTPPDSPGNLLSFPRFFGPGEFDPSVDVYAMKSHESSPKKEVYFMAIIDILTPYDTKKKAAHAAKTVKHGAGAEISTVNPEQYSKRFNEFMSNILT
The experiment in a line: Trans-FI P kinase assay PIP4K2B (PIP4KtypeIIB inhibition assay). It counts as biochemical. As to conditions: compounds listed under IC50 bin headings; 100 uM GTP; read-out: Trans-FI P kinase assays: PIP4K2B IC50. Put shortly:
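GST-tagged human PIP4K2B (5 nM, E. coli-expressed) preincubated 1 h at 27 C with compound (top 4.8 uM, 5% DMSO), then reacted 2 h with 100 uM GTP and 80 uM PI5P/DOPE vesicles in HEPES pH 7.3, MgCl2, Triton X-100. GDP detected by Transcreener FI fluorescence via calibration curve; IC50 from % activity vs log[inhibitor].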

For a further assay, the target named is T2, PIP4K 2A (Homo sapiens, UniProt P48426).
T2 sequence (P48426 1-406): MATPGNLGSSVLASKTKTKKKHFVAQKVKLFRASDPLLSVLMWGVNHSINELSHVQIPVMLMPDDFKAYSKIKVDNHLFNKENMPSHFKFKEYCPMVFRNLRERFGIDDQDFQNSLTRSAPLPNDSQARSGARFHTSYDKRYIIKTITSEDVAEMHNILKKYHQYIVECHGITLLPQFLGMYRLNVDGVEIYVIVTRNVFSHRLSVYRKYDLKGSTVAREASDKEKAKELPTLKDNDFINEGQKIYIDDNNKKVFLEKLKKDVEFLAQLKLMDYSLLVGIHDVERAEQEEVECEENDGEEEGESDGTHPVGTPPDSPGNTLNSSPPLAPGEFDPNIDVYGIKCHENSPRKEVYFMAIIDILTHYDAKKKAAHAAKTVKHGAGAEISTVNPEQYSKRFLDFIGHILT
The experiment in a line: ADP-glo kinase assay PIP4K 2A. It counts as biochemical. Also on record: 4 nM PIP4K2A (full length protein, SignalChem); purchased SignalChem. Particulars: compounds listed under IC50 bin headings. An outline of the steps:
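Full-length PIP4K2A was pre-incubated 15 min at RT with compound in 20 mM MOPS pH 7.2, 25 mM MgCl2, 0.005% Tween 20. The enzyme mix held 4 nM kinase and 100 μM PI(5)P diC8, and ATP was added from a 60 μM solution. After 1 h at RT, ADP-Glo luminescence gave % inhibition versus DMSO, fitted to IC50 over 10 threefold dilutions.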

The structures appear in SMILES notation.

In general, IC50 refers to the point on the concentration scale where inhibition reaches its midpoint. As for `CC1C[C@H]2COc3ncc(Nc4cc5c(cn4)-c4cc(F)c(N6CCCC6=O)cc4OC5C)cc3N2C1=O` (stereo partly drawn) [Example 152, (6aS)-2-((9-fluoro-5-methyl-8-(2-oxopyrrolidin-1-yl)-5H-chromeno[4,3-c]pyridin-3-yl)amino)-8-methyl-6,6a,7,8-tetrahydro-9H-pyrido[2,3-b]pyrrolo[1,2-d][1,4]oxazin-9-one], the IC50 at PIP4K2B is 1 to 10 nM; against PIP4K 2A it was ≤ 1 nM.
In the same order, the values of `CC1Oc2cc(N3CCCC3=O)c(F)cc2-c2cnc(Nc3cnc4c(c3)N3C(=O)C(C)(C)C[C@H]3CO4)cc21` (stereo partly drawn) [Example 153, (6aS)-2-((9-fluoro-5-methyl-8-(2-oxopyrrolidin-1-yl)-5H-chromeno[4,3-c]pyridin-3-yl)amino)-8,8-dimethyl-6,6a,7,8-tetrahydro-9H-pyrido[2,3-b]pyrrolo[1,2-d][1,4]oxazin-9-one] are 1 to 10 nM and ≤ 1 nM.
The corresponding values for `CC1Oc2cc(N3CCCC3=O)c(F)cc2-c2cnc(Nc3cnc4c(c3)N3C(=O)C5(CC5)C[C@H]3CO4)cc21` (stereo partly drawn) [Example 154, (6a′S)-2′-((9-fluoro-5-methyl-8-(2-oxopyrrolidin-1-yl)-5H-chromeno[4,3-c]pyridin-3-yl)amino)-6a′,7′-dihydro-6′H,9′H-spiro[cyclopropane-1,8′-pyrido[2,3-b]pyrrolo[1,2-d][1,4]oxazin]-9′-one] are 1 to 10 nM and ≤ 1 nM.
In the same order, the values of `CC1C[C@H]2COc3ncc(Nc4cc5c(cn4)-c4ccc(N6CCCC6=O)cc4OC5C)cc3N2C1=O` (stereo partly drawn) [Example 155, (6aS)-8-methyl-2-((5-methyl-8-(2-oxopyrrolidin-1-yl)-5H-chromeno[4,3-c]pyridin-3-yl)amino)-6,6a,7,8-tetrahydro-9H-pyrido[2,3-b]pyrrolo[1,2-d][1,4]oxazin-9-one] are 1 to 10 nM and ≤ 1 nM.
For the compound `CC1Oc2cc(N3CCCC3=O)ccc2-c2cnc(Nc3cnc4c(c3)N3C(=O)C(C)(C)C[C@H]3CO4)cc21` (stereo partly drawn) [Example 156, (6aS)-8,8-dimethyl-2-((5-methyl-8-(2-oxopyrrolidin-1-yl)-5H-chromeno[4,3-c]pyridin-3-yl)amino)-6,6a,7,8-tetrahydro-9H-pyrido[2,3-b]pyrrolo[1,2-d][1,4]oxazin-9-one], the values for the IC50 at PIP4K2B and against PIP4K 2A were 1 to 10 nM and ≤ 1 nM, respectively.
In the same order, the values of `CC1Oc2cc(N3CCCC3=O)ccc2-c2cnc(Nc3cnc4c(c3)N3C(=O)C5(CC5)C[C@H]3CO4)cc21` (stereo partly drawn) [Example 157, (6a′S)-2′-((5-methyl-8-(2-oxopyrrolidin-1-yl)-5H-chromeno[4,3-c]pyridin-3-yl)amino)-6a′,7′-dihydro-6′H,9′H-spiro[cyclopropane-1,8′-pyrido[2,3-b]pyrrolo[1,2-d][1,4]oxazin]-9′-one] are 1 to 10 nM and ≤ 1 nM.
In the same order, the values of `CC1Oc2cc(N3CCCC3=O)ccc2-c2cnc(Nc3cnc4c(c3)N3C(=O)OC[C@H]3CO4)cc21` (stereo partly drawn) [Example 158, (3aR)-8-((5-methyl-8-(2-oxopyrrolidin-1-yl)-5H-chromeno[4,3-c]pyridin-3-yl)amino)-3a,4-dihydro-1H,3H-oxazolo[3,4-d]pyrido[2,3-b][1,4]oxazin-1-one] are 1 to 10 nM and ≤ 1 nM.
For `CC1Oc2cc(N3CCCC3=O)c(F)cc2-c2cnc(Nc3cnc4c(c3)N3C(=O)OC[C@H]3CO4)cc21` (stereo partly drawn) [Example 159, (3aR)-8-((9-fluoro-5-methyl-8-(2-oxopyrrolidin-1-yl)-5H-chromeno[4,3-c]pyridin-3-yl)amino)-3a,4-dihydro-1H,3H-oxazolo[3,4-d]pyrido[2,3-b][1,4]oxazin-1-one], the IC50 was 1 to 10 nM at PIP4K2B and ≤ 1 nM against PIP4K 2A.
In the same order, the values of `O=C1CCCN1c1ccc2c(c1)OCc1cc(Nc3cncc(N4CCNC4=O)c3)ncc1-2` [Example 160, 1-(5-((8-(2-oxopyrrolidin-1-yl)-5H-chromeno[4,3-c]pyridin-3-yl)amino)pyridin-3-yl)imidazolidin-2-one] are 10 to 100 nM and 1 to 10 nM.
